In ChEMBL document CHEMBL3039007, “Structure-based identification of OATP1B1/3 inhibitors” (Mol Pharmacol, 2013):

Assays:
[1] = molecular target: T1, Solute carrier organic anion transporter family member 1B3 (Homo sapiens, UniProt Q9NPD5); conditions: chinese hamster, cho, 10 µM
T1 sequence (Q9NPD5 whole entry): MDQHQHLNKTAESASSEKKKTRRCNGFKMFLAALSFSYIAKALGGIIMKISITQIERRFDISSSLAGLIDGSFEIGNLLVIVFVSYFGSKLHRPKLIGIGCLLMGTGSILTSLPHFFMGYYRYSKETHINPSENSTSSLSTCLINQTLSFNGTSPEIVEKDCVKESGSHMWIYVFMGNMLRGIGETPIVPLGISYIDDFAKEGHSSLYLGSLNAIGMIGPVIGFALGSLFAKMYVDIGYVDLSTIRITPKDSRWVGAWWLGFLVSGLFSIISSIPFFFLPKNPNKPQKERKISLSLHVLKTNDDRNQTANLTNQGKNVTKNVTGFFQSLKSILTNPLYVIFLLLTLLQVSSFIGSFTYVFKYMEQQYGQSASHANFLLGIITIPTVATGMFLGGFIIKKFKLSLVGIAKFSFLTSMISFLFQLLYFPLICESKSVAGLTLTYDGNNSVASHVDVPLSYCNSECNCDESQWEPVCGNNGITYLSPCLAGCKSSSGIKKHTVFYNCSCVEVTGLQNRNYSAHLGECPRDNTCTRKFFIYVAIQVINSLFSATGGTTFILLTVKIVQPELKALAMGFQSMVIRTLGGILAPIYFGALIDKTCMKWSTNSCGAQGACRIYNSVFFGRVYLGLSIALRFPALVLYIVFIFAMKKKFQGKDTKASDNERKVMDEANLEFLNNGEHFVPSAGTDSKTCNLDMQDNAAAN

[2] = molecular target: T2, Solute carrier organic anion transporter family member 1B1 (Homo sapiens, UniProt Q9Y6L6); conditions: chinese hamster, cho, 10 µM
T2 sequence (Q9Y6L6 whole entry): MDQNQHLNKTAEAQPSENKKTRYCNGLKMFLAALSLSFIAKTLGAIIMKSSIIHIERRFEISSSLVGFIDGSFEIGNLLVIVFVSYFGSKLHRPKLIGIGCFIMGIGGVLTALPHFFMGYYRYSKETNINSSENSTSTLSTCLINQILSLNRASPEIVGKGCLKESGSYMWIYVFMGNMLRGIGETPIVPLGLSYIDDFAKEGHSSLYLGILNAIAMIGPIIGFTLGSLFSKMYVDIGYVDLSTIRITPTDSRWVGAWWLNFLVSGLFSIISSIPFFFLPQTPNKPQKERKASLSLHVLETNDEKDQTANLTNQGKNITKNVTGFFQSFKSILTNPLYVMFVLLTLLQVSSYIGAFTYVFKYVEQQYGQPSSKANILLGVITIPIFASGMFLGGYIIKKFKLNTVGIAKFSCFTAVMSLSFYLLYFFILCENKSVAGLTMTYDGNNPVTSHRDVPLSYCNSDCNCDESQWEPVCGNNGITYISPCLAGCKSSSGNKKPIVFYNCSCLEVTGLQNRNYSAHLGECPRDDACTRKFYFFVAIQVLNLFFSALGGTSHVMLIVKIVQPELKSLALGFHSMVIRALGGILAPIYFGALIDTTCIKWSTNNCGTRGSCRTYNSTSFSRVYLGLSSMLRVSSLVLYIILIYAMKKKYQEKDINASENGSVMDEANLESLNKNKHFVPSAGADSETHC

| SMILES | residual activity [1] [%] | residual activity [2] [%] |
| --- | --- | --- |
| Cc1cccc(CN2CCN(C(c3ccccc3)c3ccc(Cl)cc3)CC2)c1.Cl.O (centres undefined) | 79.23 | 80.22 |
| CNC(C)(C)Cc1ccccc1.O=S(=O)(O)O | 109.4 | 107.5 |
| CCN(CC)CCNC(=O)c1cc(Cl)c(N)cc1OC.Cl | 108.2 | 84.82 |
| CN1CCc2c(c3ccccc3n2Cc2ccccc2)C1.CN1CCc2c(c3ccccc3n2Cc2ccccc2)C1.O=S(=O)(O)c1cccc2c(S(=O)(=O)O)cccc12 | 77.15 | 69.52 |
| COc1cc2c3cc1Oc1cc(ccc1O)C[C@@H]1c4c(cc(OC)c(O)c4Oc4ccc(cc4)C[C@@H]3N(C)CC2)CC[N+]1(C)C.[Cl-] | 110.3 | 99.28 |
| C[C@H]1CC[C@]2(NC1)O[C@H]1C[C@H]3[C@@H]4CC[C@H]5C[C@@H](O)CC[C@]5(C)[C@H]4CC[C@]3(C)[C@H]1[C@@H]2C.Cl | 99.59 | 108.8 |
| CSCC[C@H](NC=O)C(=O)N[C@@H](CC(C)C)C(=O)N[C@@H](Cc1ccccc1)C(=O)O | 120.4 | 76.72 |
| COc1cc(OC)c2c(c1)O[C@H](c1ccc(OC)c(OC)c1)[C@@H](O)C2 | 103.7 | 123.7 |
| CC(=O)[C@H]1CC[C@H]2[C@@H]3CC[C@@H]4C[C@H](O)CC[C@]4(C)[C@H]3C[C@H](O)[C@]12C | 117.8 | 97.69 |
| CSCC[C@H](N)C(=O)N[C@@H](CC(C)C)C(=O)N[C@@H](Cc1ccccc1)C(=O)OC(C)=O | 94.57 | 102.4 |
| CC(=O)[C@H]1CC[C@H]2[C@@H]3CC(=O)C4=CC(=O)CC[C@]4(C)[C@H]3CC[C@]12C | 75.51 | 38.54 |
| C[C@@H]1O[C@@H](O[C@H]2[C@H](O[C@H]3CC[C@]4(C)C5CC=C6[C@@H]7CC(C)(C)CC[C@]7(C(=O)O)CC[C@]6(C)[C@]5(C)CC[C@@H]4[C@]3(C)CO)OC[C@H](O)[C@@H]2O)[C@H](O)[C@H](O)[C@H]1O (some centres undefined) | 112.9 | 103.8 |
| CC1=CC(=O)[C@H]2C(C)(C)CCC[C@]2(C)[C@@]1(O)CCc1ccoc1 | 78.78 | 48.25 |
| COc1cc(OC)c2c(c1Cl)O[C@@]1(C(=O)CC(=O)C[C@H]1C)C2=O | 85.63 | 81.69 |
| CC(=O)O[C@@H]1C[C@H]2C(C)(C)C=CC(=O)[C@@]2(C)[C@H]2CC[C@]3(C)[C@@H](c4ccoc4)OC(=O)[C@H]4O[C@]43[C@]21C | 46.89 | 18.57 |
| CC(=O)O[C@H]1CC[C@@]2(C)C(=CC[C@@H]3[C@@H]2CC[C@]2(C)C4C(C[C@@H]32)OC2(CCC(C)CO2)[C@H]4C)C1 (some centres undefined) | 105.4 | 111 |
| COC(=O)[C@@H]1OC(=O)[C@H]2O[C@]23[C@@]2(C)[C@H](CC[C@@]13C)[C@@]1(C)[C@@H](OC(C)=O)C[C@@H](OC(C)=O)C(C)(C)[C@@H]1C[C@@H]2O | 72.87 | 66.58 |
| CC(=O)O[C@H]1C[C@@H](OC(C)=O)C(C)(C)[C@@H]2CC(=O)[C@]3(C)[C@H](CC[C@@]4(C)[C@H](c5ccoc5)OC(=O)[C@H]5O[C@]543)[C@@]12C | 72.19 | 55.58 |
| CC(=O)O[C@H]1CC[C@@]2(C)[C@@H](CC[C@@H]3[C@@H]2CC[C@]2(C)[C@@H]4[C@H](C[C@@H]32)O[C@@]2(CCC(C)CO2)[C@H]4C)C1 (some centres undefined) | 107.6 | 112.3 |

| SMILES | residual activity [1] [%] | residual activity [2] [%] |
| --- | --- | --- |
| CC(=O)O[C@H]1CC[C@]2(C)C3=C(CC[C@H]2C1(C)C)[C@@]1(C)CC[C@H]([C@H](C)CCC=C(C)C)[C@]1(C)CC3 | 40.21 | 29.18 |
| COC(=O)[C@@H]1OC(=O)[C@H]2O[C@]23[C@]2(C)[C@H](O)C[C@H]4C(C)(C)[C@H](OC(C)=O)C[C@H](OC(C)=O)[C@]4(C)[C@H]2CC[C@@]13C | 83.24 | 70.09 |
| CC(C)=CCC[C@]1(C)C=Cc2c(O)c3c(c(CC=C(C)C)c2C1)O[C@]12C(=C[C@@H]4C[C@H]1C(C)(C)O[C@@]2(C/C=C(/C)C(N)=O)C4=O)C3=O | 70.77 | 57.81 |
| CC(=O)O[C@H]1C[C@@H](OC(C)=O)C(C)(C)[C@@H]2C[C@@H](OC(C)=O)[C@]3(C)[C@H](CC[C@]4(C)[C@H](c5ccoc5)C(=O)[C@H]5O[C@@]534)[C@@]12C | 57.61 | 26.02 |
| CC(=O)O[C@H]1C[C@@H](OC(C)=O)C(C)(C)[C@@H]2C[C@@H](OC(C)=O)[C@@]3(C)C4=CC(=O)O[C@@H](c5ccoc5)[C@]4(C)CC[C@@H]3[C@@]12C | 104.2 | 107.2 |
| CC1(C)C(=O)C=C[C@]2(C)[C@H]3CC[C@@]4(C)[C@H](c5ccoc5)OC(=O)[C@H]5O[C@]54[C@]3(C)C=C[C@@H]12 | 75.29 | 56.92 |
| CC1CC[C@]2(OC1)OC1C[C@H]3[C@@H]4CC[C@H]5C[C@@H](O)CC[C@]5(C)C4=CC[C@]3(C)C1[C@@H]2C (some centres undefined) | 108.3 | 109.1 |
| CC(=O)O[C@H]1C[C@@H](OC(C)=O)C(C)(C)[C@@H]2CC(=O)[C@]3(C)[C@H](CC[C@@]4(C)[C@H](C(=O)O)OC(=O)[C@H]5O[C@]543)[C@@]12C | 72.75 | 72.69 |
| COC(=O)[C@@]1(C)CCC[C@]2(C)c3ccc(O)c(C(C)C)c3CC[C@@H]12 | 122.1 | 90.51 |
| CC(=O)Oc1ccc2c(c1C(C)C)CC[C@H]1C(C)(C)CCC[C@]21C | 105.1 | 70.34 |
| CC(=O)O[C@@H]1C[C@H]2C(C)(C)C(=O)[C@H]3O[C@H]3[C@]2(C)[C@H]2CC[C@@]3(C)[C@H](c4ccoc4)OC(=O)[C@H]4O[C@]43[C@@]21C | 88.38 | 58.52 |
| CC1(C)[C@H](O)C[C@H](O)[C@]2(C)[C@H]3CC[C@@]4(C)[C@H](c5ccoc5)OC(=O)[C@H]5O[C@]54[C@]3(C)C(=O)C[C@@H]12 | 93.94 | 48.25 |
| CC(C)c1c(O)c(-c2cc3c(c(C(C)C)c2O)CC[C@H]2C(C)(C)CCC[C@]32C)cc2c1CC[C@H]1C(C)(C)CCC[C@]21C | 91.38 | 64.65 |
| OC[C@@H](O)C(O)[C@H](O)CO | 118.8 | 121.4 |
| O=C(Nc1ccccc1)Nc1ccccc1 | 104.3 | 86.66 |
| NC(=O)CN1CCCC1=O | 103.1 | 88.77 |
| CC(=O)Nc1ccc(S(=O)(=O)Nc2ccc([N+](=O)[O-])cc2)cc1 | 88.89 | 61.58 |
| N=C(N)c1ccc(OCCCCCOc2ccc(C(=N)N)cc2)cc1.O=S(=O)(O)CCO | 156 | 99.74 |
